{"source": "patent US20140323500A1", "about": "“NADPH OXIDASE 4 INHIBITORS AND USE THEREOF” (GENKYOTEX SA, priority 2011, published 2014)", "system": "female mice subjected to ovariectomy", "experiment": "Ovariectomy-induced osteoporosis (bone loss) in mice", "type": "in vivo", "description": "BMD of the left femur was measured by peripheral quantitative computed tomography (QCT) using an XCT Research QCT machine (Stratec Medizintechnik, Pforzheim, Germany). One slice (0.2 mm thick) in the mid-diaphysis of the femur and 3 slices in the distal femoral metaphysis located 1.5, 2, and 2.5 mm proximal to the articular surface of the knee joint were measured. BMD values of the distal femoral metaphysic were calculated as the mean of 3 slices. A voxel size of 0.070 mm and a threshold of 710 mg/cm^3 were used for calculation of BMD as described in Hofbauer et al., 2009, Arthritis Rheum., 60(5):1427-1437.\nThe control group received daily gavages by the solvent.\nTo study the latter effect, female mice were subjected to ovariectomy to induce osteoporosis and the effect of pharmacological inhibition of Nox4 with a Nox4 inhibitor as well as acute genetic knockout of the protein was studied. For this, mice were subjected to ovariectomy 8 weeks after birth and treatment at 60 mg/kg with a Nox4 inhibitor of the invention was started 2 days after the operation and continued throughout the study (6 weeks).\n3, Hamburg was used which completely blocks osteoclast activity. […] For this, bones were scanned with a skyscan 1176 and bone density was analysed with the integrated software using two phantoms with 0.25 g/cm^3 and 0.75 g/cm^3 as reference. A 2 mm portion of the femur from the tibia plateau was analysed for total and trabecular bone density by the software provided by the manufacturer of the machine. […] For this method, the femurs were loaded to failure by 3-point bending tests using a Zwick Z020/TN2A materials testing machine (Zwick, Ulm, Germany) with a 1 kN force detector, and a force resolution of 0.01N. The distance between the lower supports for the bending tests was 5 mm. Crosshead speed during testing was 0.2 mm/minute for all measurements. From the force-displacement data, ultimate force (Fmax; in N) was calculated."}
{"compound": "COc1ccc(-c2c3c(=O)n(-c4ccccc4OC)[nH]c3cc(=O)n2Cc2cccnc2)c(F)c1", "note": "[Compound (1), 4-(2-fluoro-4-methoxyphenyl)-2-(2-methoxyphenyl)-5-(pyridin-3-ylmethyl)-1H-pyrazolo[4,3-c]pyridine-3,6(2H,5H)-dione]", "values": [{"measurement": "absolute bone density (total)", "setting": "distal femur 6 weeks after ovariectomy, compound 1 at 20 and 60 mg/kg, pamidronat 10 mg/kg once a week, microCT, FIG. 6A", "result": "increased absolute bone density"}, {"measurement": "absolute trabecular bone density", "setting": "distal femur 6 weeks after ovariectomy, compound 1 at 20 and 60 mg/kg, pamidronat 10 mg/kg once a week, microCT, FIG. 6B", "result": "increased"}, {"measurement": "relative inhibition of ovarectomy-induced total bone loss", "setting": "distal femur 6 weeks after ovariectomy, compound 1 at 20 and 60 mg/kg, pamidronat 10 mg/kg once a week, microCT, FIG. 6C", "result": "~50", "unit": "%"}, {"measurement": "relative inhibition of trabecular bone loss", "setting": "distal femur 6 weeks after ovariectomy, compound 1 at 20 and 60 mg/kg, pamidronat 10 mg/kg once a week, microCT, FIG. 6D", "result": "approximately 60%"}, {"measurement": "bone breaking strength (3-point breaking test)", "setting": "highest concentration (of 20 and 60 mg/kg), femur, 6 weeks after ovariectomy, FIG. 6E", "result": "significant increase in bone breaking strength"}]}
